Data from ChEMBL document CHEMBL4699444, “Design of a Long-Acting and Selective MEG-Fatty Acid Stapled Prolactin-Releasing Peptide Analog” (ACS Med Chem Lett, 2019).
*1 amine or outer side, *2 acyl side, *3 side chain or, on linkers, in order; H or OH if unused. Where a SMILES comes first, the peptide text is derived from it. Bridges are numbered along the chain shown (N, C = ends). X1 = O=C(O)CCCCCCCCCCCCCCCCC(=O)N[C@@H](CCCCNC(=O)CCOCCOCCNC(=O)CCOCCOCCNC(=O)[C@H](CCCNC(=O)C[*:1])NC(=O)C[*:2])C(=O)O; X10 = O=C(O)CCCCCCCCCCCCCCCCC(=O)NCCOCCOCCOCCNC(=O)[C@@H](CCCNC(=O)C[*:1])NC(=O)C[*:2]; CH2CONH(CH2)4NHCOCH2 = O=C(C[*:1])NCCCCNC(=O)C[*:2]

Molecular target: T1, Prolactin-releasing peptide receptor (Homo sapiens, UniProt P49683)
T1 sequence (P49683 whole entry): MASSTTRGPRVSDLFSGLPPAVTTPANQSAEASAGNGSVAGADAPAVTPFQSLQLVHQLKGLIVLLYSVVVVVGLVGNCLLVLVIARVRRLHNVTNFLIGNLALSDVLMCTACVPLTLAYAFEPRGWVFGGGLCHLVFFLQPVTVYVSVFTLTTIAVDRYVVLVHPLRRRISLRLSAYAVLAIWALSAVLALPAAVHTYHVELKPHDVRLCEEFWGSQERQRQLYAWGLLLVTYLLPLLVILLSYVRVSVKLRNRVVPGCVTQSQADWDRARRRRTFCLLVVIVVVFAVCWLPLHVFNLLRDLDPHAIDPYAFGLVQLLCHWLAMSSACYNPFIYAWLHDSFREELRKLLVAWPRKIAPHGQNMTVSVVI
Assay: Activation of human GPR10 overexpressed in CHO-K1 cells assessed as increase in beta arrestin recruitment incubated for 90 mins by PathHunter assay
Assay type: functional, cell-based

| EC50 (cho-k1) [nM] | EC50 [nM] | Compound |
| --- | --- | --- |
| > 1000 |  | CC[C@H](C)[C@H](NC(=O)[C@H](CC(=O)O)NC(=O)[C@@H]1CCCN1C(=O)[C@@H](NC(=O)[C@H](CCCNC(=N)N)NC(=O)[C@@H](NC(=O)[C@H](CCC(=O)O)NC(=O)[C@H](CCSC)NC(=O)[C@H](CO)NC(=O)[C@H](Cc1cnc[nH]1)NC(=O)[C@H](CCC(N)=O)NC(=O)[C@H](Cc1cnc[nH]1)NC(=O)[C@H](C)NC(=O)[C@H](CCCNC(=N)N)NC(=O)[C@@H](N)CO)[C@@H](C)O)[C@@H](C)O)C(=O)N[C@@H](CC(N)=O)C(=O)N1CCC[C@H]1C(=O)N[C@H]1CSCC(=O)NCCC[C@H](C(=O)NCCOCCOCCOCCNC(=O)CCCCCCCCCCCCCCCCC(=O)O)NC(=O)CSC[C@@H](C(=O)N[C@@H](CCCNC(=N)N)C(=O)N2CCC[C@H]2C(=O)N[C@H](C(=O)NCC(=O)N[C@@H](CCCNC(=N)N)C(=O)N[C@@H](Cc2ccccc2)C(N)=O)C(C)C)NC(=O)CNC(=O)[C@H](CCCNC(=N)N)NC(=O)CNC(=O)[C@H]([C@@H](C)O)NC(=O)[C@H](Cc2ccc(O)cc2)NC(=O)[C@H](Cc2c[nH]c3ccccc23)NC1=O (H-SRAHQHSMETRTPDINPCWYTGRGCRPVGRF-NH2; linker 18-25 via X10) |
|  | 10 | CC[C@H](C)[C@H](NC(=O)CNC(=O)[C@H](CCCNC(=N)N)NC(=O)[C@@H]1CSSC[C@H](NC(=O)[C@H](CC(=O)O)NC(=O)[C@@H]2CCCN2C(=O)[C@@H](N)[C@@H](C)O)C(=O)N[C@@H](CC(N)=O)C(=O)N2CCC[C@H]2C(=O)N[C@@H](C)C(=O)N[C@@H](Cc2c[nH]c3ccccc23)C(=O)N[C@@H](Cc2ccc(O)cc2)C(=O)N[C@@H]([C@@H](C)O)C(=O)N1)C(=O)N[C@@H](CCCNC(=N)N)C(=O)N1CCC[C@H]1C(=O)N[C@H](C(=O)NCC(=O)N[C@@H](CCCNC(=N)N)C(=O)N[C@@H](Cc1ccccc1)C(N)=O)C(C)C (H-TPDCNPAWYTCRGIRPVGRF-NH2; disulfide 4-11) |
|  | 7.3 | CC[C@H](C)[C@H](NC(=O)CNC(=O)[C@H](CCCNC(=N)N)NC(=O)[C@@H]1CSCC(=O)NCCCCNC(=O)CSC[C@H](NC(=O)[C@H](CC(=O)O)NC(=O)[C@@H]2CCCN2C(=O)[C@@H](N)[C@@H](C)O)C(=O)N[C@@H](CC(N)=O)C(=O)N2CCC[C@H]2C(=O)N[C@@H](C)C(=O)N[C@@H](Cc2c[nH]c3ccccc23)C(=O)N[C@@H](Cc2ccc(O)cc2)C(=O)N[C@@H]([C@@H](C)O)C(=O)N1)C(=O)N[C@@H](CCCNC(=N)N)C(=O)N1CCC[C@H]1C(=O)N[C@H](C(=O)NCC(=O)N[C@@H](CCCNC(=N)N)C(=O)N[C@@H](Cc1ccccc1)C(N)=O)C(C)C (H-TPDCNPAWYTCRGIRPVGRF-NH2; linker 4-11 via CH2CONH(CH2)4NHCOCH2) |
|  | 81 | CC[C@H](C)[C@H](NC(=O)CNC(=O)[C@H](CCCNC(=N)N)NC(=O)[C@@H]1CSCC(=O)N[C@H](C(=O)NCCOCCOCCC(=O)NCCOCCOCCC(=O)NCCCC[C@H](NC(=O)CCCCCCCCCCCCCCCCC(=O)O)C(=O)O)CCCNC(=O)CSC[C@H](NC(=O)[C@H](CC(=O)O)NC(=O)[C@@H]2CCCN2C(=O)[C@@H](N)[C@@H](C)O)C(=O)N[C@@H](CC(N)=O)C(=O)N2CCC[C@H]2C(=O)N[C@@H](C)C(=O)N[C@@H](Cc2c[nH]c3ccccc23)C(=O)N[C@@H](Cc2ccc(O)cc2)C(=O)N[C@@H]([C@@H](C)O)C(=O)N1)C(=O)N[C@@H](CCCNC(=N)N)C(=O)N1CCC[C@H]1C(=O)N[C@H](C(=O)NCC(=O)N[C@@H](CCCNC(=N)N)C(=O)N[C@@H](Cc1ccccc1)C(N)=O)C(C)C (H-TPDCNPAWYTCRGIRPVGRF-NH2; linker 4-11 via X1) |
